Reference: patent US20250011289A1, “1H-BENZO[B]AZEPIN-2(3H)-ONE COMPOUNDS, COMPOSITIONS AND METHODS OF TREATING CANCER” (Chengdu Anticancer Bioscience, Ltd., priority 2021, published 2025)
Read-outs that look alike come from different tables or passages of the source.

How the values were obtained:
[1] = tested on: RPE-Neo or RPE-MYC cells; experiment: MTT assay of cellular proliferation; type: cell-based; conditions: compounds at 20 nM to 20 μM; read-out: Min. Effective conc. for Proliferative arrest (>50%)
Description: Human cancer cell lines were obtained from ATCC and cultured in DMEM (Gibco, Cleveland. TN, USA) supplemented with 5% fetal bovine serum (Gibco), penicillin (100 U/mL)-streptomycin (100 μg/mL) (Gibco, Cat. No. 15140-122), 2 mM L-glutamine (Gibco, 200 mM solution, Cat. No. 25030081), and 1 mM sodium pyruvate (Gibco, 100 mM solution, Cat. No. 11360070) at 37° C. in a humidified incubator that was maintained at 5% CO2.
(§1) Screening was conducted as described before (Li et al. 2019). Briefly, RPE-Neo or RPE-MYC or RPE-MYC expressing an EGFP-Histone 2B fusion protein were passaged as batches of 96-well plates, 18-24 hours before exposure to the chemical compounds of the present disclosure at concentrations from 20 nM to 20 μM. At 24, 48 or 72 hours after initiation of treatment, cells were analyzed for either an arrest in mitosis or a change in DNA content by GE 1N-Cell Analyzer 2000. MTT assays of cellular proliferation were performed as previously described (Li et al. 2019).
(§2) As set forth in table 2 below, an values of greater than or equal to 1 nM and less than or equal to 1.0 μM is marked “A”; a value greater than 1.00 μM and less than or equal to 10.0 μM is marked “B”; a value greater than 10.0 μM and less than or equal to 30.0 μM is marked “C”; and a value greater than 30.0 μM and less than 1000 μM is marked “D.”

[2] = tested on: RPE-Neo or RPE-MYC or RPE-MYC expressing an EGFP-Histone 2B fusion protein; experiment: Phenotypic screening assay (arrest in mitosis or change in DNA content, IN-Cell Analyzer); type: cell-based; conditions: compounds at 20 nM to 20 μM, analysed 24, 48 or 72 hours after initiation of treatment
Description: as §1, §2

[3] = read-out: Min. Effective conc. for Along with Cell Death
[4] = read-out: Min. Effective conc. for Mitotic Arrest (>5%)
[5] = read-out: Min. Effective conc. for Polyploidy (≥5%)

Measured: minimal effective concentration

Cc1ccc(CN2C(=O)CC(C=O)=C(Cl)c3ccccc32)cc1F [Compound 7-1, 5-chloro-1-(3-fluoro-4-methylbenzyl)-2-oxo-2,3-dihydro-1H-benzo[b]azepine-4-carbaldehyde]
0.001 to 1 µM: [1] | [2]; [3] | [2]; [4] | [2]; [5]

Cc1ccc(CN2C(=O)CC(c3cnco3)=C(Cl)c3ccccc32)cc1F [Compound 8-1, 5-chloro-1-(3-fluoro-4-methylbenzyl)-4-(oxazol-5-yl)-1,3-dihydro-2H-benzo[b]azepin-2-one]
0.001 to 1 µM: [1] | [2]; [3] | [2]; [4] | [2]; [5]

Cc1ccc(CN2C(=O)CC(c3cnco3)=C(Br)c3ccccc32)cc1F [Compound 8-2, 5-bromo-1-(3-fluoro-4-methylbenzyl)-4-(oxazol-5-yl)-1,3-dihydro-2H-benzo[b]azepin-2-one]
0.001 to 1 µM: [1] | [2]; [3] | [2]; [4] | [2]; [5]

Cc1ccc(CN2C(=O)CC(c3cnco3)=C(Br)c3ccc(Br)cc32)cc1F [Compound 8-3, 5,8-dibromo-1-(3-fluoro-4-methylbenzyl)-4-(oxazol-5-yl)-1,3-dihydro-2H-benzo[b]azepin-2-one]
0.001 to 1 µM: [1] | [2]; [3] | [2]; [4] | [2]; [5]

Cc1ccc(CN2C(=O)CC(c3cnco3)=C(Cl)c3ccc(C#N)cc32)cc1F [Compound 8-4, 5-chloro-1-(3-fluoro-4-methylbenzyl)-4-(oxazol-5-yl)-2-oxo-2,3-dihydro-1H-benzo[b]azepine-8-carbonitrile]
0.001 to 1 µM: [1] | [2]; [3] | [2]; [4] | [2]; [5]

COc1ccc2c(c1)N(Cc1ccc(C)c(F)c1)C(=O)CC(c1cnco1)=C2Cl [Compound 8-5, 5-chloro-1-(3-fluoro-4-methylbenzyl)-8-methoxy-4-(oxazol-5-yl)-1,3-dihydro-2H-benzo[b]azepin-2-one]
0.001 to 1 µM: [1] | [2]; [3] | [2]; [4] | [2]; [5]

COc1ccc2c(c1)N(Cc1ccc(C)c(F)c1)C(=O)CC(c1cnco1)=C2Br [Compound 8-6, 5-bromo-1-(3-fluoro-4-methylbenzyl)-8-methoxy-4-(oxazol-5-yl)-1,3-dihydro-2H-benzo[b]azepin-2-one]
0.001 to 1 µM: [1] | [2]; [3] | [2]; [4] | [2]; [5]

Cc1ccc(CN2C(=O)CC(c3cnco3)=C(Cl)c3ccc(O)cc32)cc1F [Compound 8-7, 5-chloro-1-(3-fluoro-4-methylbenzyl)-8-hydroxy-4-(oxazol-5-yl)-1,3-dihydro-2H-benzo[b]azepin-2-one]
0.001 to 1 µM: [1] | [2]; [3] | [2]; [4] | [2]; [5]

COCCOc1ccc2c(c1)N(Cc1ccc(C)c(F)c1)C(=O)CC(c1cnco1)=C2Cl [Compound 8-9]
0.001 to 1 µM: [1] | [2]; [3] | [2]; [4] | [2]; [5]
